In the supplement of paper PMC10307832:

Columns and labels:
Test in all cases: relative viability (nuclei count vs DMSO), 5 days (fraction); higher = more cells survive
[1] = compound: O=C(Nc1cccc(C(F)(F)F)c1)Nc1cc(S(=O)(=O)NC2CC2)ccc1-c1ccsc1 [AGI-6780]
In short: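 Lung cancer cell lines were seeded into 1536-well plates, kept overnight at 37 °C and pinned with five library-drug doses (not always all listed) spaced by √10. After 5 days, nuclei were Hoechst-stained, imaged at 4× and counted with MetaXpress. Viability is treated-well nuclei over vehicle-well nuclei, taken as a median across plates. Plates needed control CV below 25% and at least one doubling.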

[2] = compound: O=C(Nc1cccc(C(F)(F)F)c1)Nc1cc(S(=O)(=O)NC2CC2)ccc1-c1ccsc1 [AGI-6780] + CC1(C)CCC(c2ccc(Cl)cc2)=C(CN2CCN(c3ccc(C(=O)NS(=O)(=O)c4ccc(N[C@H](CCN5CCOCC5)CSc5ccccc5)c(S(=O)(=O)C(F)(F)F)c4)cc3)CC2)C1 [Navitoclax] (partner 0.5 µM)
In short: (§1)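 Lung cancer cell lines were seeded in 1536-well plates and dosed by pin tool the next day, with either a single drug or a fixed anchor-drug dose combined with five library-drug doses (not always all listed) spaced in √10 steps. Five days later, one step fixed the cells and stained their nuclei (final 0.05% Triton X-100, 1% formaldehyde, 1 ug/ml Hoechst), and nuclei were counted on 4× images. Relative viability is the nuclei count in treated wells divided by the count in vehicle wells, and each value is the median of duplicate plates.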

[3] = compound: O=C(Nc1cccc(C(F)(F)F)c1)Nc1cc(S(=O)(=O)NC2CC2)ccc1-c1ccsc1 [AGI-6780] + Cc1cc(Nc2cc(N3CCN(C)CC3)nc(Sc3ccc(NC(=O)C4CC4)cc3)n2)n[nH]1 [Tozasertib] (partner 0.1 µM)
In short: as §1

[4] = compound: O=C(Nc1cccc(C(F)(F)F)c1)Nc1cc(S(=O)(=O)NC2CC2)ccc1-c1ccsc1 [AGI-6780] + N=C(N)NC(=N)NCCc1ccccc1 [Phenformin] (partner 250 µM)
In short: as §1

| Cell Line | relative viability ([1]; 0.08 µM) | relative viability ([1]; 0.253 µM) | relative viability ([1]; 0.8 µM) | relative viability ([1]; 8 µM) | relative viability ([2]; first compound 0.08 µM) | relative viability ([2]; first compound 0.253 µM) | relative viability ([2]; first compound 0.8 µM) | relative viability ([2]; first compound 8 µM) | relative viability ([3]; first compound 0.08 µM) | relative viability ([3]; first compound 0.253 µM) | relative viability ([3]; first compound 0.8 µM) | relative viability ([3]; first compound 8 µM) | relative viability ([4]; first compound 0.08 µM) | relative viability ([4]; first compound 0.253 µM) | relative viability ([4]; first compound 0.8 µM) | relative viability ([4]; first compound 8 µM) | relative viability ([1]; 2.53 µM) | relative viability ([2]; first compound 2.53 µM) | relative viability ([3]; first compound 2.53 µM) | relative viability ([4]; first compound 2.53 µM) |
| --- | --- | --- | --- | --- | --- | --- | --- | --- | --- | --- | --- | --- | --- | --- | --- | --- | --- | --- | --- | --- |
| LK-2 | 0.945 | 1.02 | 1.08 | 1.16 | 0.891 | 0.844 | 1.01 | 1.11 | 0.178 | 0.16 | 0.147 | 0.162 | 0.598 | 0.556 | 0.648 | 0.495 |  |  |  |  |
| LOU-NH91 | 0.953 | 0.992 | 1.04 | 0.961 | 0.718 | 0.735 | 0.698 | 0.775 | 0.725 | 0.642 | 0.63 | 0.64 | 0.707 | 0.659 | 0.774 | 0.698 | 0.923 | 0.575 | 0.583 | 0.677 |
| LU99A | 0.975 | 0.928 | 0.987 | 0.931 | 0.786 | 0.842 | 0.823 | 0.809 | 0.237 | 0.275 | 0.294 | 0.299 | 0.866 | 0.747 | 0.815 | 0.79 | 0.839 | 0.741 | 0.237 | 0.773 |
| LXF-289 | 0.994 | 1.01 | 1.02 | 0.984 | 0.967 | 0.939 | 0.936 | 0.939 | 0.201 | 0.225 | 0.152 | 0.25 | 0.516 | 0.518 | 0.538 | 0.541 | 1.13 | 0.987 | 0.131 | 0.529 |
| NCI-H23 | 0.927 | 1.11 | 0.9 | 1.16 | 0.844 | 0.951 | 0.835 | 0.802 | 0.347 | 0.365 | 0.35 | 0.343 | 0.822 | 0.747 | 0.766 | 0.784 | 0.796 | 0.555 | 0.379 | 0.719 |
| NCI-H322M | 0.896 | 0.927 | 1.07 | 0.965 | 1.11 | 1.14 | 1.28 | 1.21 | 0.517 | 0.508 | 0.493 | 0.515 | 0.755 | 0.788 | 0.816 | 0.85 | 0.922 | 1.24 | 0.425 | 0.808 |
| NCI-H441 | 1.08 | 1.03 | 1.04 | 1.16 | 0.702 | 0.993 | 0.604 | 0.663 | 0.608 | 0.733 | 0.474 | 0.599 | 1.07 | 0.964 | 0.822 | 0.787 | 0.786 | 0.487 | 0.415 | 0.668 |
| NCI-H460 | 0.987 | 0.99 | 0.998 | 0.992 | 1.14 | 1.03 | 1.04 | 1.14 | 0.537 | 0.453 | 0.491 | 0.176 | 0.529 | 0.527 | 0.568 | 0.524 | 0.977 | 1.14 | 0.349 | 0.585 |
| NCI-H520 | 1.11 | 1.04 | 1.09 | 1.04 | 1.04 | 1.12 | 1.18 | 1.05 | 0.486 | 0.441 | 0.426 | 0.446 | 0.733 | 0.699 | 0.743 | 0.622 | 0.819 | 1.05 | 0.327 | 0.431 |
| NCI-H596 | 0.96 | 0.954 | 0.87 | 1.12 | 0.91 | 1.02 | 0.927 | 0.929 | 0.839 | 0.898 | 0.725 | 0.983 | 0.739 | 0.876 | 0.758 | 0.752 | 0.724 | 0.774 |  |  |
| NCI-H647 | 0.873 | 0.979 | 1.01 | 1.07 | 1.2 | 1.22 | 1.33 | 1.19 | 0.299 | 0.302 | 0.37 | 0.281 | 0.409 | 0.609 | 0.729 | 0.744 | 0.909 | 1.09 | 0.181 | 0.408 |
| NCI-H727 | 0.988 | 0.902 | 1.26 | 0.987 | 0.493 | 0.448 | 0.474 | 0.494 | 0.583 | 0.568 | 0.669 | 0.681 | 0.62 | 0.536 | 0.687 | 0.698 | 0.885 | 0.369 | 0.722 | 0.563 |
| NCI-H838 | 0.984 | 0.996 | 0.995 | 0.957 | 1.19 | 1.09 | 1.17 | 1.11 | 0.321 | 0.244 | 0.295 | 0.224 | 0.644 | 0.637 | 0.643 | 0.631 | 0.83 | 1.06 | 0.276 | 0.516 |
| NCI-H1355 | 1.02 | 1.07 | 1.03 | 1 | 1.01 | 1.05 | 0.984 | 0.946 | 0.594 | 0.575 | 0.562 | 0.45 | 0.485 | 0.451 | 0.484 | 0.448 | 0.823 | 0.932 | 0.41 | 0.393 |
| NCI-H1395 | 0.928 | 1 | 1.09 | 0.97 | 1.25 | 1.17 | 1.2 | 1.23 | 0.778 | 0.774 | 0.893 | 0.674 | 0.469 | 0.46 | 0.45 | 0.449 | 0.768 |  | 0.666 | 0.397 |
| NCI-H1437 | 0.943 | 1 | 1.04 | 0.997 | 1.19 | 1.06 | 1.12 | 0.966 | 0.486 | 0.42 | 0.428 | 0.391 | 0.337 | 0.382 | 0.298 | 0.343 | 1 | 1.07 | 0.408 | 0.327 |
